# Experimental data as given in patent US20020165221A1, “Mediators of hedgehog signaling pathways, compositions and uses related thereto” (priority 2000, published 2002).
# Assays:
# [1] = system: Ptc-null cells (gli-1 mRNA, Patched pathway); assay: Ptc-null assay: gli-1 mRNA by RT-PCR and quantitative real-time PCR; format: cell-based, mouse; settings: 3 days; for expression of gli-1 mRNA (RT-PCR, agarose gel): vs vehicle
# Method: Ptc-null cells were cultured for 3 days in the presence of vehicle; jervine, a known Patched pathway antagonist (i) used here as a positive control; or 1 μM of compound D. Total ribonucleic acid (RNA) was isolated from the cells and used for reverse transcriptase-polymerase chain reaction (RT-PCR). […] The gli-1 and actin mRNA samples were then loaded on 1.5% agarose gel and were detected by staining with ethidium bromide. The same samples were analyzed by the quantitative real-time polymerase chain reaction method to quantify the levels of gli-1 MRNA.
# [2] = system: Patched pathway / ultraviolet radiation-induced BCC tumors; assay: Adult BCC mouse skin punch assay (UV-irradiated Ptc heterozygous transgenic mice); format: cell-based
# Method: Ptc heterozygous transgenic mice were irradiated 3 times weekly for 6 months, during which time many small, and often microscopic, BCC tumors developed. Four-mm diameter skin punch explants, presumably containing BCC structures, were cultured for 6 days in the presence of vehicle, the positive control […]), or 5 μM D. At the end of the experiment, the explants were analyzed by X-gal staining to detect the level of Patched pathway activity, by histology to determine the effect of treatment on the morphology of ultraviolet radiation-induced BCCs, and by quantifying the level of gli-1 mRNA expression to characterize the extent of pathway inhibition.
# [3] = system: Shh-induced BCC-like structures; assay: Embryonic mouse skin punch assay: long-term treatment of pre-existing BCC-like structures; format: cell-based
# Method: Day 17.5 embryonic skin punches from transgenic Patched pathway reporter mice were cultured in the presence of Shh protein for 7 days to allow for the development of BCC-like structures. The Shh protein was removed at the end of the 7 days. The cultures were then exposed to Shh protein plus either vehicle or D for 3 days. The cultures were analyzed histologically after 10 days to assess the formation of BCC-like structures that are indicative of activation of the Patched pathway.
# One possible mechanism for D-induced regression of BCC-like structures may be apoptosis of the activated cells. To investigate this possibility, parallel explants were exposed to 5 μM D for 2 days and were then stained by the terminal deoxynucleotidyltransferase mediated d-UTP nick end-labeling (TUNEL) method, which is used to detect apoptotic nuclei.
# [4] = system: GLI-1 expression in human BCC; assay: Human BCC explant culture, quantitative in situ hybridization; format: cell-based; settings: 10 μM D, 3 days, vs vehicle
# Method: Specimens obtained from surgical procedures (such as Mohs surgery or curettage) were cultured on fresh, living, day 17 embryonic mouse dermis from which all epidermal cells have been removed by digestion using dispase. Since dispase treatment digests basement membrane components, Matrigel, a commercially available basement membrane preparation, was applied between the dermis and BCC. Cultures were assembled on top of a plastic grid and incubated for 3 days (with or without D at a concentration of 10 μM) in a medium suitable for the long-term culture of human skin. After culture, the samples were processed for routine histology and subjected to quantitative in situ hybridization. Briefly, 7μm sections of paraformaldehyde-fixed, paraffin-embedded tissue containing large basal cell islands were cleared, re-hydrated, digested with proteinase K, acetylated and hybridized with [^33P]- labeled RNA probes overnight. After high stringency post-hybridization washes, slides were exposed to a PhosphorImager screen in the dark at room temperature for 4-7 days. After developing, the [^33P]-signal was scanned using a Storm Scanner (Molecular Dynamics). Individual basal cell islands were selected and the signal quantified and expressed in average counts/pixel using ImageQuant 1.0 software.
# [5] = system: Patched pathway (X-gal, gli-1 mRNA, BCC-like structures); assay: Embryonic mouse skin punch assay: short-term treatment of pre-existing BCC-like structures; format: cell-based
# Method: Day 17.5 embryonic skin punches from transgenic Patched pathway reporter mice were cultured in the presence of Shh protein for 7 days. The Shh protein was removed at the end of the 7 days. The skin punches were then exposed to vehicle or 1 or 5 μM D for 5 hours on days 7 and 9. After each exposure to vehicle or D, the vehicle or D was washed off and the skin punches were cultured again in the presence of Shh protein. Cultures were analyzed by X-gal staining after 10 days in vitro to assess the activity of the Patched pathway.
# [6] = system: Patched pathway (ptc-lacZ reporter); assay: Embryonic mouse skin punch assay: short-term pretreatment with D; format: cell-based; settings: pretreated with D at 10, 20 and 50 μM for 5 hours, then Shh 6 days
# Method: Transgenic mouse-derived skin punches were treated with vehicle or D for 5 hours in the absence of Shh. After the pretreatment, the vehicle or D was removed. The skin punches were washed twice and then cultured in the presence of Shh for 6 days. At the end of the experiment, the skin punches were fixed and stained with X-gal to determine Patched pathway activity.
# Hedgehog pathway = assay: Gli-Luc assay (Hedgehog-responsive Luciferase reporter), 10T1/2(s12) cells with OCT-SHH; format: cell-based; settings: OCT-SHH 0.3 μg/ml
# Method: Compounds to be tested are dissolved in DMSO to a concentration of 10 MM, and stored at −20° C. To activate the Hedgehog pathway in the assay cells, an octylated (lipid-modified) form of the N-terminal fragment of the Sonic Hedgehog protein (OCT-SHH) is used. This N-terminal SHH fragment is produced bacterially.
# Compounds may be tested in the “Gli-Luc” assay below, using the cell line 10T(s12), wherein the cells contain a Hedgehog-responsive reporter construct utilizing Luciferase as the reporter gene. In this way, Hedgehog pathway signaling activity can be measured via the Gli-Luc response.
# 10t1/2(s12) cells are plated in a 96-well micro-titer plate (MTP) at 20,000 cells/well in full medium [DMEM with 10% FBS]. Then plates are placed in the incubator for incubation overnight (O/N), at 37° C. and 5% CO2. After 24 h, the medium is replaced with Luciferase-assay medium (DMEM with 0.5% FBS). Compounds are thawed and diluted in assay medium at 3:1000 (about 300-fold) resulting in a starting concentration of about 30 μM.
# Subsequently, 150 μl of each 30 μM sample is added to the first wells (in triplicate). The MTP samples are then diluted at 3-fold dilutions to a total of seven wells, ultimately resulting in a regiment of seven dilutions in triplicate, for each compound. Next, the protein ligand OCT-SHH is diluted in Luciferase-assay medium and added to each well at a final concentration of 0.3 μg/ml. Plates are then returned to the incubator for further incubation O/N, at 37° C. and 5% CO2. After about 24 h, plates are removed from the incubator and the medium is aspirated/discarded. Wells are washed once with assay buffer [PBS +1 mM Mg^2+and 1 mM Ca^2+]. Then 50 μl of assay buffer is added to each well. The Luciferase assay reagent is prepared as described by the vendor (LucLite kit from Packard), and 50 μl is added to each well. Plates are incubated at room temperature (RT) for about 30 minutes after which the signals are read, again at RT, on a Topcount (Packard).
# [7] = system: Patched pathway (ptc-lacZ reporter, Shh-induced BCC-like structures); assay: Embryonic mouse skin punch assay: prolonged exposure to D; format: cell-based; settings: Shh-treated skin punches, 6 days
# Source text: A novel cell culture assay was established to determine the effects of D on activation of the Patched pathway in skin. In this system, activation of the Patched pathway results in increased expression of the ptc gene.
# To monitor the activity of the Patched pathway in embryonic skin, we cultured pieces of skin from transgenic Patched pathway reporter mice. These mice were genetically engineered to harbor a foreign gene (lacZ). The lacZ gene encodes a bacterial beta-galactosidase. The gene was inserted in the ptc locus but allowed for normal ptc function. Ptc activation in response to Shh-induced Patched pathway activation can then be monitored by the production of the lacZ gene product, beta-galactosidase, which is detectable by the enzymatic conversion of the substrate X-gal into a blue-colored reaction product.
# Day 17.5 embryonic skin was explanted as 2 mm circular punches from these transgenic reporter mice and cultured for 5 to 7 days in the presence of Shh protein (FIG. 34). […] To test the effect of D, skin punches were cultured for 6 days in the presence of both Shh protein and D (FIG. 35).
# [8] = short-term treatment, 5 hours on days 7 and 9
compound,measurement,setting,value
"CC1=C2C(=O)[C@H]3[C@@H](CC=C4C[C@@H](O)CC[C@@]43C)[C@@H]2CC[C@]12O[C@@H]1C[C@H](C)CN[C@H]1[C@H]2C [jervine, reference compound]",gli-1 mRNA levels (quantitative real-time PCR),[1]; 5 μM jervine,downregulated
same,"expression of gli-1 mRNA (RT-PCR, agarose gel)",[1]; 5 μM jervine,significantly decreased
same,number and size of BCC structures (X-gal staining),"[2]; jervine positive control, 6 days, vs vehicle",greatly decreased
COc1cccc(CN(C(=O)CC(C)(C)C)C2CC(C(=O)N3CCNCC3)N(Cc3ccc4c(c3)OCO4)C2)c1 (centres unmarked) [Compound D],number of apoptotic nuclei within BCC-like structures (TUNEL),"[3]; 5 μM D, 2 days, vs vehicle",significantly higher
same,general cytotoxic effects on skin cells (histology),"[3]; D 1 or 5 μM, 3 days",did not appear to have general cytotoxic effects
same,size and number of Shh-induced BCC-like structures,"[3]; pre-existing structures, D 1 or 5 μM, 3 days, vs vehicle",significantly reduced
same,gli-1 mRNA levels (quantitative real-time PCR),[1]; 1 μM D,downregulated
same,"expression of gli-1 mRNA (RT-PCR, agarose gel)",[1]; 1 μM D,significantly decreased
same,level of GLI-1 expression (quantitative in situ hybridization),[4],greatly reduced
same,regression of existing Shh-induced BCC-like structures,[5]; 1 and 5 μM D for 5 hours on days 7 and 9,caused the regression
same,amount of X-gal staining,[5]; 1 or 5 μM D for 5 hours on days 7 and 9,reduced
same,GAPDH mRNA levels (general cytotoxicity),[5]; [8],relatively constant
same,gli-1 transcription (gli-1 mRNA levels),[5]; [8],completely downregulated
same,inhibition of Shh protein-induced upregulation of the Patched pathway (X-gal staining),[6],complete inhibition
same,IC50,Hedgehog pathway,< 1000 nM
same,X-gal staining,"[7]; 0.2 μM D, vs Shh alone",decreased
same,Patched pathway activity (lacZ reporter enzyme activity),[7]; 0.01 to 1 μM D,dose-dependent decrease
same,formation of BCC-like structures,[7]; histology,completely blocked
same,integrity of normal skin cells,[7]; histology,without affecting the integrity of normal skin cells
same,number and size of established BCC structures (X-gal staining),"[2]; 5 μM D, 6 days, vs vehicle",decreased
same,level of gli-1 mRNA,"[2]; D 1 and 5 μM, vs vehicle",significantly inhibited
same,regression of ultraviolet radiation-induced BCC tumors (histology),"[2]; D, 6 days, vs vehicle",induced the regression
same,levels of housekeeping GAPDH (non-specific cytotoxicity),[2]; treated vs vehicle,no significant difference
COc1cccc(CN(C(=O)CC2CC2)[C@H]2C[C@@H](C(=O)N3CCNCC3)N(Cc3ccc4c(c3)OCO4)C2)c1 [J″],IC50,Hedgehog pathway,< 100 nM
COc1cccc(CN(C(=O)CC2CCCC2)C2CC(C(=O)N3CCNCC3)N(Cc3ccc4c(c3)OCO4)C2)c1 (centres unmarked) [K″],IC50,Hedgehog pathway,< 1000 nM
CC(C)CC(=O)N(Cc1cccc(SC(F)(F)F)c1)C1CC(C(=O)N2CCNCC2)N(Cc2ccc3c(c2)OCO3)C1 (centres unmarked) [X″],IC50,Hedgehog pathway,< 10000 nM
COc1cccc(CN(C(=O)C2CC2)C2CC(C(=O)N3CCNCC3)N(CC(C)C)C2)c1 (centres unmarked) [A′],IC50,Hedgehog pathway,< 10000 nM
COc1cccc(CN(C(=O)C2CC2)C2CC(C(=O)N3CCNCC3)N(Cc3ccc(C)s3)C2)c1 (centres unmarked) [B],IC50,Hedgehog pathway,< 1000 nM
CCOc1cc(CN2CC(N(Cc3cccc(OC)c3)C(=O)CC(C)(C)C)CC2C(=O)N2CCNCC2)ccc1OC (centres unmarked) [K′],IC50,Hedgehog pathway,< 10000 nM
COc1cccc(CN(C(=O)CC(C)(C)C)C2CC(C(=O)N3CCNCC3)N(Cc3ccc4c(c3)OCCO4)C2)c1 (centres unmarked) [J],IC50,Hedgehog pathway,< 100 nM
COc1cccc(CN(C(=O)CC(C)(C)C)[C@H]2C[C@@H](C(=O)N3CCNCC3)N(Cc3ccc(Br)s3)C2)c1 [C″],IC50,Hedgehog pathway,< 1000 nM
CC(C)CC(=O)N(Cc1cccc(C#N)c1)C1CC(C(=O)N2CCNCC2)N(Cc2ccc3c(c2)OCO3)C1 (centres unmarked) [S″],IC50,Hedgehog pathway,< 1000 nM
COc1cccc(CN(C(=O)CC(C)(C)C)C2CC(C(=O)N3CCCNCC3)N(Cc3ccc4c(c3)OCO4)C2)c1 (centres unmarked) [Z],IC50,Hedgehog pathway,< 1000 nM
COc1cccc(CN(C(=O)CC(C)(C)C)[C@H]2C[C@@H](C(=O)N3CCNCC3)N(Cc3ccc(C=O)s3)C2)c1 [H″],IC50,Hedgehog pathway,< 10000 nM
CC(C)CC(=O)N(Cc1ccccc1OC(F)F)C1CC(C(=O)N2CCNCC2)N(Cc2ccc3c(c2)OCO3)C1 (centres unmarked) [W″],IC50,Hedgehog pathway,< 10000 nM
